From PMC11189516, “Structure-guided conversion from an anaplastic lymphoma kinase inhibitor into Plasmodium lysyl-tRNA synthetase selective inhibitors” (Communications Biology, 2024)
Where “and” joins values, the source holds several entries; their conditions need not be identical. Identical values can stand only once. Like-named read-outs stand apart in the source and are kept apart here.

Columns and labels:
[1] = target: T1, PfLysRS (Plasmodium falciparum, UniProt Q8IDJ8); assay: Thermal shift assay; format: binding; conditions: for ΔTm at 200 µM: in the presence of L-lysine; for Tm of PfLysRS, Average / Tm of PfLysRS, single repeat / △Tm of PfLysRS: +Lysine
T1 construct: PfLysRS (77–583) was constructed in the vector pET20b, with a C-terminal 6×His tag; 6xHis (C); made in house; host or cells: E. coli BL21 (DE3)
Description: PfLysRS protein was prepared at 10 μM concentration in a buffer containing 20 mM Tris pH 8.0, 200 mM NaCl, 500 μM L-lysine, and 200 μM Compound. Aliquots (18 µL) were added to a 96-well PCR plate and incubated at ambient temperature for 10 min. SYPRO Orange dye (Sigma) was diluted in the assay buffer containing 20 mM Tris pH 8.0 and 200 mM NaCl to a 40× concentration, and 2 µL of the 40× dye solution was added to the PCR plate to bring the final assay volume to 20 µL. After complete mixing, the final solutions were heated from 25 to 90 °C at a rate of 0.015 °C per sec, and fluorescence signals were monitored by QuantStudio 3 (Applied Biosystems by Thermo Fisher Scientific).

[2] = tested on: erythrocytic-stage P. falciparum 3D7 parasites; assay: In vitro Plasmodium growth assay; format: cell-based, Plasmodium falciparum; conditions: for HillSlope (best-fit value): Plasmodium falciparum 3D7; for LogIC50 (best-fit value): Plasmodium falciparum 3D7, log of nM; for IC50: Plasmodium falciparum 3D7, source data, read-out: IC50 (best-fit value); for EC50: Plasmodium falciparum, 3D7, 72 h
Description: Parasites were cultured in human O+ erythrocytes according to standard procedures. To prepare the >80% ring stage parasites, asynchronous cultures of parasites were pretreated with 5% sorbitol, and P. falciparum strain 3D7 at the mid-ring stage (6–10 h post-invasion) was used to test antimalarial effects in 96-well plates. Parasites were incubated in a 96-well plate with compound containing 1% parasitemia and, 2% hematocrit for a total volume of 200 μL. […] A relevant DMSO concentration was used as a negative control, and cultured erythrocytes without Plasmodium served as a positive control. The parasites were allowed to grow for 72 h at 37 °C with 5% CO2, 5% O2, and 90% N2. After 72 h, 100 μL of lysis buffer (0.12 mg·mL^−1 Saponin, 0.12% Triton X-100, 30 mM Tris-HCl pH 8.0, and 7.5 mM EDTA) with 5× SYBR Green I (Invitrogen; supplied in 10000× concentration) was added to each well of the plate. The plates were then incubated for 2 h in the dark prior to reading the fluorescence signal at 485 nm excitation and 535 nm emission. The percentage of inhibition was calculated by (NC-fluorescence) × 100/(NC-PC).

[3] = target: T2, ALK (Homo sapiens, UniProt Q9UM73); assay: ATP hydrolysis assay (Kinase-Glo) on ALK; format: biochemical
T2 construct: The plasmid pCDNA3.1_8×His-tev-ALK (kinase domain, 1068–1410) was constructed; 8xHis (N); TEV site (N); made in house; host or cells: Expi293 cells (transient transfection)
Description: (§1) The ATP hydrolysis assays were based on Kinase-Glo luminescent Kit (Promega). The experiment was carried out in Corning 384-well white flat bottom microplates. The buffer in the reaction contains 25 mM Hepes pH 7.4, 140 mM NaCl, 40 mM MgCl2, 30 mM KCl, 1 mM TCEP, 0.1 mg·mL^−1 BSA, and 0.004% Tween-20. The compounds were diluted to different concentrations with a 5-fold gradient.
For ALK assays, DMSO was added into negative control wells. 100 nM ALK in 2.5 μL Hepes buffer was mixed with compounds and incubated for 10 min. Then 5 μL substrate (2 μM ATP) was added to start the reaction at 37 °C and incubated for 6 h.
(§2) When the reaction reaches the planned time, 10 μL diluted Kinase-Glo reagent (1/50 diluted with a buffer containing 50 mM Tris pH 7.5 and 5% glycerol) was added and incubated for 15 min. Luminescence was measured on the Magellan plate reader (Tecan) and nonlinear regression was performed with Prism (GraphPad).

[4] = target: T3, HsLysRS (Homo sapiens, UniProt Q15046); assay: ATP hydrolysis assay (Kinase-Glo) on HsLysRS; format: biochemical
T3 construct: HsLysRS (70–581) was constructed in the vector pET20b with a C-terminal 6×His tag; 6xHis (C); made in house; host or cells: E. coli (pET20b; 'purified similarly' to PfLysRS, which was expressed in BL21 (DE3))
Description: as §1
(§3) For LysRS assays, DMSO was added into negative control wells and L-lysine was removed in positive control wells. 100 nM LysRS in 2.5 μL Hepes buffer was mixed with compounds and incubated for 10 min. Then 5 μL substrate mixture (2 μM ATP, 10 μM L-lysine and 31 nM pyrophosphatase) was added to start the reaction at 37 °C and incubated for 6 h.
as §2

[5] = target: T1, PfLysRS; assay: ATP hydrolysis assay (Kinase-Glo) on PfLysRS; format: biochemical; conditions: for LogIC50 (best-fit value): log of nM
Description: as §1, §3, §2

[6] = Solubility noted in the cytotoxicity assay; format: physicochemical; conditions: highest concentration limited to 100 μM in cell medium
Description: Cell viability was analyzed by Cell Counting Kit-8 (CCK8, ApexBio) according to the manufacturer’s protocols. Cells were seeded and cultured at a density of 2.5 × 10^3 cells per well in 100 μL medium in 96-well microplates (Corning). Then, the cells were treated with different concentrations of compound (0, 1 μM, 3 μM, 10 μM, 100 μM, 300 μM). […] After treatment for 72 h, 10 μL of CCK-8 reagent was added to each well and then cultured for 4 h. All experiments were performed in pentaplicate. The absorbance was analyzed at 450 nm using a microplate reader (Tecan) using medium without cells as blanks. Data was processed using GraphPad Prism 9.

[7] = target: T1, PfLysRS; assay: Surface plasmon resonance (SPR) assay; format: binding; conditions: immobilized PfLysRS
Description: PfLysRS was chemically immobilized on a Biacore CM5 sensorchip (immobilization level ~20000 resonance unit/RU) at pH 5.0 according to the immobilization kit (GE Healthcare). PfLysRS (1.7 nM) was captured for 90 s at a flow of 30 µL·min^−1. Affnity between PfLysRS and compounds was measured by SPR on a Biacore 8 K (GE Healthcare) at 25 °C with a running buffer (0.02 M phosphate buffer pH 7.4, 2.7 mM KCl, 0.137 M NaCl, 0.05% Tween 20, with 1 mM L-lysine). The association time was 90 s, the dissociation time was 120 s, and the flowrate was 30 µL·min^−1. Kinetic evaluation of the interaction between LysRS and compounds was performed by global fitting of the data to a 1:1 interaction model using Biacore Evaluation Software 3.1 (GE Healthcare).

[8] = P. falciparum 3D7, Log(Concentration)/nM 3.193, single repeats
[9] = P. falciparum 3D7, Log(Concentration)/nM 3.496, single repeats
[10] = P. falciparum 3D7, Log(Concentration)/nM 3.796, single repeats
[11] = P. falciparum 3D7, Log(Concentration)/nM 4.097, single repeats
[12] = P. falciparum 3D7, Log(Concentration)/nM 4.398, single repeats
[13] = P. falciparum 3D7, Log(Concentration)/nM 4.699, single repeats
[14] = P. falciparum 3D7, Log(Concentration)/nM 5.000, single repeats
[15] = sheet Figure 6B, in °C (unit assumed)

T1 sequence (Q8IDJ8 entry or part of it): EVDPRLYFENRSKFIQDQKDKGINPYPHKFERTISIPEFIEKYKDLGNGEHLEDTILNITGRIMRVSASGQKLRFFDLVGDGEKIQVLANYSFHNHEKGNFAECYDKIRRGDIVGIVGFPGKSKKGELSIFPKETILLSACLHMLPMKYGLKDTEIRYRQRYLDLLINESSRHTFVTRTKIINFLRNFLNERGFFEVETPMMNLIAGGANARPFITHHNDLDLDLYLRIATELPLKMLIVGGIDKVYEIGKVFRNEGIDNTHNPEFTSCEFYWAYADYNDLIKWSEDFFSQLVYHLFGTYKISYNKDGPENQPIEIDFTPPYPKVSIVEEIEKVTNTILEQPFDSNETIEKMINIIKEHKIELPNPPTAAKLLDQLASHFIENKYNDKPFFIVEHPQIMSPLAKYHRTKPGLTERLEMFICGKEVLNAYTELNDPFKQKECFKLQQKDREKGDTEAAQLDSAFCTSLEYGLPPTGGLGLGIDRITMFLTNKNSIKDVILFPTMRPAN
T2 sequence (Q9UM73 1068-1410): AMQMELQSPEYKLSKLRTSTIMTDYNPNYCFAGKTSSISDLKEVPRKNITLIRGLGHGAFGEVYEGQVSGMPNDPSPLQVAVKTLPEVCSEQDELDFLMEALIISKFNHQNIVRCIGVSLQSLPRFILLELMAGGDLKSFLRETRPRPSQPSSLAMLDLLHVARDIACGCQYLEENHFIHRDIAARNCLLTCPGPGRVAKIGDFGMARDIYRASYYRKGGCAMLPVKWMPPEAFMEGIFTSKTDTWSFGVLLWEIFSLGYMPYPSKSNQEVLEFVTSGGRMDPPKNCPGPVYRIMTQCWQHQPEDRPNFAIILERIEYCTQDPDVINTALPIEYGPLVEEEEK
T3 sequence (Q15046 70-581): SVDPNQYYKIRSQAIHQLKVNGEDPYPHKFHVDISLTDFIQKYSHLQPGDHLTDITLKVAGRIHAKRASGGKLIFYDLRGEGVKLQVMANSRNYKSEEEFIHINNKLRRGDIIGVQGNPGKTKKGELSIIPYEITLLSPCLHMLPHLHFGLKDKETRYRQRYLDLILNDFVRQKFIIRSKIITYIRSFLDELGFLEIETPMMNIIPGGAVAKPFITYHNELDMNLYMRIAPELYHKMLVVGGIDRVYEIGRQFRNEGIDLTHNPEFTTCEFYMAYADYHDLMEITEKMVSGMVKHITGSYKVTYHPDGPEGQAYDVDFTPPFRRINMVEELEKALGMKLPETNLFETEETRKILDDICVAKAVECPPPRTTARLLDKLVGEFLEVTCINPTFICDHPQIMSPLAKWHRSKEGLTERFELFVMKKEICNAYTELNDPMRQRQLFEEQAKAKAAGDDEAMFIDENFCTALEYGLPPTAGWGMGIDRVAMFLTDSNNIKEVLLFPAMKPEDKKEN

## COC(=O)c1ccc(OC)c(Nc2ncnc(Nc3ccccc3S(=O)(=O)C(C)C)n2)c1 [Compound 34]
[1]
  ΔTm at 200 µM: 7.9 °C
[2]; P. falciparum 3D7, Log(Concentration)/nM 2.290, single repeats
  % Inhibition: 1.182% and -0.03693% and -1.145%
[2]; P. falciparum 3D7, Log(Concentration)/nM 2.592, single repeats
  % Inhibition: 1.736% and -0.03693% and 4.616%
[2]; [8]
  % Inhibition: 62.22% and 58.01% and 53.91%
[2]; [9]
  % Inhibition: 92.69% and 87.92% and 85.93%
[2]; [10]
  % Inhibition: 98.34% and 94.68% and 94.24%
[2]; [11]
  % Inhibition: 98.78% and 97.23% and 96.34%
[2]; [12]
  % Inhibition: 101.2% and 100.6% and 98.23%
[2]; [13]
  % Inhibition: 99.67% and 99.22% and 96.9%
[2]; [14]
  % Inhibition: 94.68% and 96.01% and 94.24%
[2]
  HillSlope (best-fit value): 2.802
  LogIC50 (best-fit value): 3.133
  IC50: 1.36 µM
  EC50: 1.36 ± 0.04 µM

## COc1ccc(OC)c(Nc2ncnc(Nc3ccccc3S(=O)(=O)CCNC(=O)[C@@H](N)CCCCN)n2)c1 [Compound 36K2]
[3]; read-out: IC50 against ALK
  IC50: > 109000 nM
[1]; [15]
  Tm of PfLysRS, Average: 50.650
  Tm of PfLysRS, single repeat: 50.665 and 50.973 and 50.296
[4]; read-out: IC50 against HsLysRS
  IC50: 31 µM
[5]; read-out: IC50 against PfLysRS
  IC50: 365 nM

## COc1ccc(OC)c(Nc2ncnc(Nc3ccccc3S(=O)(=O)CCCNC(=O)[C@@H](N)CCCCN)n2)c1 [Compound 36K3]
[6]
  solubility: poor solubility
[7]
  koff: 0.0113 s⁻¹
  kon: 911000 M/s
[7]; 1 mM L-lysine in running buffer, read-out: dissociation constant (KD)
  Kd: 12.4 nM
[3]; read-out: IC50 against ALK
  IC50: > 74400 nM
[1]; sheet Figure 6B
  △Tm of PfLysRS: 12.798
[1]; [15]
  Tm of PfLysRS, Average: 57.818
  Tm of PfLysRS, single repeat: 57.710 and 57.895 and 57.833
[1]
  ΔTm at 200 µM: 12.8 °C
[4]; PfLysRS vs HsLysRS
  apparent selectivity index for HsLysRS: 200
[4]; read-out: IC50 against HsLysRS
  IC50: 12 µM
[5]; PfLysRS
  HillSlope (best-fit value): 1.065
  LogIC50 (best-fit value): 1.772
[5]; read-out: IC50 against PfLysRS
  IC50: 59.2 nM

## COc1ccc(OC)c(Nc2ncnc(Nc3ccccc3S(=O)(=O)CCCCCNC(=O)[C@@H](N)CCCCN)n2)c1 [Compound 36K5]
[3]; read-out: IC50 against ALK
  IC50: > 66800 nM
[1]; sheet Figure 6B
  △Tm of PfLysRS: 10.740
[1]; [15]
  Tm of PfLysRS, Average: 55.760
  Tm of PfLysRS, single repeat: 55.867 and 55.929 and 55.806 and 55.437
[4]; read-out: IC50 against HsLysRS
  IC50: 22 µM
[5]; read-out: IC50 against PfLysRS
  IC50: 2770 nM

## COc1cnc(OC)c(Nc2ncnc(Nc3ccccc3S(=O)(=O)C(C)C)n2)c1 [Compound 36a]
[1]
  ΔTm at 200 µM: 10.7 °C
[4]; read-out: IC50 against HsLysRS
  IC50: 44 µM
[2]; P. falciparum 3D7, Log(Concentration)/nM 2.893, single repeats
  % Inhibition: 14.91%
[2]; [8]
  % Inhibition: 32.52% and 24.14%
[2]; [9]
  % Inhibition: 30.61% and 34.32%
[2]; [10]
  % Inhibition: 39.42% and 74.11%
[2]; [11]
  % Inhibition: 57.98% and 94.48%
[2]; [12]
  % Inhibition: 81.01% and 104.5%
[2]; [13]
  % Inhibition: 93% and 107%
[2]; [14]
  % Inhibition: 88.65% and 105.6%
[2]
  HillSlope (best-fit value): 1.181
  LogIC50 (best-fit value): 3.762
  IC50: 5.78 µM
  EC50: 5.78 ± 1.73 µM

## COc1ncccc1Nc1ncnc(Nc2ccccc2S(=O)(=O)C(C)C)n1 [Compound 38a]
[3]; ALK
  HillSlope (best-fit value): 0.6894
[3]; ALK, log of nM
  LogIC50 (best-fit value): 2.857
[3]; ALK, source data, read-out: IC50 (best-fit value)
  IC50: 719 nM
[3]; read-out: IC50 against ALK
  IC50: 719 ± 182 nM
[1]
  Tm of PfLysRS, Average: 48.001 °C
  Tm of PfLysRS, single repeat: 48.109 °C and 48.140 °C and 47.986 °C and 47.770 °C
  ΔTm at 200 µM: 7.9 °C
[4]; HsLysRS
  HillSlope (best-fit value): 1.205
[4]; HsLysRS, Log(Concentration)/nM 2.505, single repeats
  % Inhibition: 3.343% and 6.292% and 8.061%
[4]; HsLysRS, Log(Concentration)/nM 3.204, single repeats
  % Inhibition: -0.8065% and 1.795% and 3.658%
[4]; HsLysRS, Log(Concentration)/nM 3.903, single repeats
  % Inhibition: 7.774% and 9.643% and 10.78%
[4]; HsLysRS, Log(Concentration)/nM 4.602, single repeats
  % Inhibition: 27.95% and 31.1% and 35.27%
[4]; HsLysRS, Log(Concentration)/nM 5.301, single repeats
  % Inhibition: 65.61% and 74.02% and 86.84%
[4]; HsLysRS, Log(Concentration)/nM 6.000, single repeats
  % Inhibition: 101.8% and 97.59% and 99.58%
[4]; HsLysRS, log of nM
  LogIC50 (best-fit value): 4.923
[4]; HsLysRS, source data, read-out: IC50 (best-fit value)
  IC50: 83.7 µM
[4]; read-out: IC50 against HsLysRS
  IC50: 84 µM
[5]; PfLysRS
  HillSlope (best-fit value): 0.6952
  LogIC50 (best-fit value): 2.755
[5]; PfLysRS, source data, read-out: IC50 (best-fit value)
  IC50: 568 nM
[5]; read-out: IC50 against PfLysRS
  IC50: 568 nM
